According to ChEMBL document CHEMBL5465560, “Selectivity Literature for EUbOPEN Chemogenomic Library” (2024):

Experiments:
[1] = biological target: Ribosomal protein S6 kinase alpha-5 (Homo sapiens) (UniProt O75582); assay: Selectivity interaction (Kinase panel (literature)) EUB0001199aCl RPS6KA5; conditions: at 1 µM
[2] = biological target: T1, Aurora kinase A (Homo sapiens) (UniProt O14965); assay: Selectivity interaction (KinaseProfiler screening (Millipore)) EUB0000601a STK6; conditions: at 3 µM
T1 sequence (whole entry): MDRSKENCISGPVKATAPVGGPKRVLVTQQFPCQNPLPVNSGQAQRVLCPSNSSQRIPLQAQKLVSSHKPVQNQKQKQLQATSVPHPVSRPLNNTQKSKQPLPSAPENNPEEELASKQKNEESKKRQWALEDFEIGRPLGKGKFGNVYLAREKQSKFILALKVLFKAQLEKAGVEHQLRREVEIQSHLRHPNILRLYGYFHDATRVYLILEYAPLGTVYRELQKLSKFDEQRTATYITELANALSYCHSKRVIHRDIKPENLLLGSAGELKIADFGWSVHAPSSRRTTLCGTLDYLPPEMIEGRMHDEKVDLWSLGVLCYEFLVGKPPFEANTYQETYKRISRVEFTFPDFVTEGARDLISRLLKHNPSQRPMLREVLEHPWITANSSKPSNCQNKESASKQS

[3] = biological target: Tyrosine-protein kinase Fer (Homo sapiens) (UniProt P16591); assay: Selectivity interaction (ActivX KiNativ screen (kinase selectivity in THP-1 cell lysates)) EUB0000639a FER; format: subcellular; conditions: lysate, at 1 µM
[4] = biological target: Non-receptor tyrosine-protein kinase TYK2 (Homo sapiens, UniProt P29597); assay: Selectivity interaction (ActivX KiNativ screen (kinase selectivity in THP-1 cell lysates)) EUB0000639a TYK2; format: subcellular; conditions: lysate
[5] = biological target: Rho-associated protein kinase 2 (Homo sapiens, UniProt O75116); assay: Selectivity interaction (Kinase panel (Invitrogen)) EUB0000639a ROCK2; conditions: at 200 nM
[6] = test system: Phosphatidylinositol 4,5-bisphosphate 3-kinase catalytic subunit alpha isoform (Homo sapiens), P42336 [E545A]; conditions: at 10 µM
[7] = test system: Phosphatidylinositol 4,5-bisphosphate 3-kinase catalytic subunit alpha isoform (Homo sapiens), P42336 [E545K]; assay: Selectivity interaction (Ambit KINOMEscan) EUB0000092b PIK3CA; conditions: at 10 µM
[8] = biological target: Cyclin-dependent kinase-like 1 (Homo sapiens) (UniProt Q00532); assay: Selectivity interaction (Ambit KINOMEscan and KiNATiv profiling in Jurkat cells) EUB0000090b CDKL1; format: cell-based; conditions: at 1 µM
[9] = biological target: Serine/threonine-protein kinase RIO2 (Homo sapiens) (UniProt Q9BVS4); assay: Selectivity interaction (Ambit KINOMEscan and KiNATiv profiling in Jurkat cells) EUB0000090b RIOK2; format: cell-based; conditions: at 1 µM
[10] = biological target: Homeodomain-interacting protein kinase 2 (Homo sapiens, UniProt Q9H2X6); assay: Selectivity interaction (KinomeScan (DiscoverX)) EUB0000618a HIPK2; conditions: at 10 µM
[11] = biological target: Tyrosine-protein kinase Fgr (Homo sapiens) (UniProt P09769); assay: Selectivity interaction (KinomeScan (DiscoverX)) EUB0000618a FGR; conditions: at 10 µM
[12] = biological target: Tyrosine-protein kinase SYK (Homo sapiens, UniProt P43405); conditions: at 10 µM
[13] = biological target: T2, Activin receptor type-1B (Homo sapiens) (UniProt P36896); conditions: at 10 µM
T2 sequence (whole entry): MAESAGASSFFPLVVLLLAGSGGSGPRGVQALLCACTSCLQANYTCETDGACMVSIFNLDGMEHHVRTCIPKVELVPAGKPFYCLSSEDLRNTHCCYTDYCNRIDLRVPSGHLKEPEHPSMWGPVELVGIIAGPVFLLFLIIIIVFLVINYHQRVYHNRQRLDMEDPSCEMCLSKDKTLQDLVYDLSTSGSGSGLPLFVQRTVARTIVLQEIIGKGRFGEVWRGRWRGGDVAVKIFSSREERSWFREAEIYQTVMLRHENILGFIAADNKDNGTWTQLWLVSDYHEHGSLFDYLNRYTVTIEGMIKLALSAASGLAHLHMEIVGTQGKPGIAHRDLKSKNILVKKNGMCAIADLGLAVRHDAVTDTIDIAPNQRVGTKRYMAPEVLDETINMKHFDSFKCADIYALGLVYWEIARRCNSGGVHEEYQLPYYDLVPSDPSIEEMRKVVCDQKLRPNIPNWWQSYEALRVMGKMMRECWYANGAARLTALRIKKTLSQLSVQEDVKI

[14] = biological target: T3, Mitogen-activated protein kinase kinase kinase 12 (Homo sapiens) (UniProt Q12852); conditions: at 10 µM
T3 sequence (whole entry): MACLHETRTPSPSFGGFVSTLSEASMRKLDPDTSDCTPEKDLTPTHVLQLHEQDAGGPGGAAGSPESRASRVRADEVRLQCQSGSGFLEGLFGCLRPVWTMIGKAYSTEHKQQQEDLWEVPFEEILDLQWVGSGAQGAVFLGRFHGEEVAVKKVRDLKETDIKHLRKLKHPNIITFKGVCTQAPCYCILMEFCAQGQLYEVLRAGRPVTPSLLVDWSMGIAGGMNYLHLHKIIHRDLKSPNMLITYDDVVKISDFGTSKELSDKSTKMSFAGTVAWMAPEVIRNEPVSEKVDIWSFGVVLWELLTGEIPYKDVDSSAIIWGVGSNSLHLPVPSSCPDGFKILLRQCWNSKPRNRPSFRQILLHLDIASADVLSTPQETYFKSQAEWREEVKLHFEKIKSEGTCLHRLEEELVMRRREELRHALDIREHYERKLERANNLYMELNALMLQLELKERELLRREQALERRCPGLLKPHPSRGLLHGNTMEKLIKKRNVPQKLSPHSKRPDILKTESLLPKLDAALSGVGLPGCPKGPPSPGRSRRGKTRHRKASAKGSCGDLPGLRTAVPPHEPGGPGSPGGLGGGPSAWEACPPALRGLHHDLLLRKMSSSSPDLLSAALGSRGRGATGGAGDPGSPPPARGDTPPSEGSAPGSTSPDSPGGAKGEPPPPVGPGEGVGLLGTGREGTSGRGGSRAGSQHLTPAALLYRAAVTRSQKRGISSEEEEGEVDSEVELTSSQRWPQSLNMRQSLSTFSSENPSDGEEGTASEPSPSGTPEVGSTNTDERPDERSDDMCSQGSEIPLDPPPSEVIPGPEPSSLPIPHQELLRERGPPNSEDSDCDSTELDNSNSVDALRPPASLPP

[15] = biological target: Fibroblast growth factor receptor 1 (Homo sapiens, UniProt P11362); assay: Selectivity interaction (KinomeScan (DiscoverX)) EUB0000695a FGFR1; conditions: at 100 nM
[16] = biological target: Serine/threonine-protein kinase 38 (Homo sapiens) (UniProt Q15208); assay: Selectivity interaction (KinomeScan (DiscoverX)) EUB0000695a STK38; conditions: at 100 nM
[17] = Selectivity interaction (KinomeScan (DiscoverX)) EUB0000607a PKNB; conditions: at 10 µM

Non-receptor tyrosine-protein kinase TYK2, sequence (P29597 whole entry): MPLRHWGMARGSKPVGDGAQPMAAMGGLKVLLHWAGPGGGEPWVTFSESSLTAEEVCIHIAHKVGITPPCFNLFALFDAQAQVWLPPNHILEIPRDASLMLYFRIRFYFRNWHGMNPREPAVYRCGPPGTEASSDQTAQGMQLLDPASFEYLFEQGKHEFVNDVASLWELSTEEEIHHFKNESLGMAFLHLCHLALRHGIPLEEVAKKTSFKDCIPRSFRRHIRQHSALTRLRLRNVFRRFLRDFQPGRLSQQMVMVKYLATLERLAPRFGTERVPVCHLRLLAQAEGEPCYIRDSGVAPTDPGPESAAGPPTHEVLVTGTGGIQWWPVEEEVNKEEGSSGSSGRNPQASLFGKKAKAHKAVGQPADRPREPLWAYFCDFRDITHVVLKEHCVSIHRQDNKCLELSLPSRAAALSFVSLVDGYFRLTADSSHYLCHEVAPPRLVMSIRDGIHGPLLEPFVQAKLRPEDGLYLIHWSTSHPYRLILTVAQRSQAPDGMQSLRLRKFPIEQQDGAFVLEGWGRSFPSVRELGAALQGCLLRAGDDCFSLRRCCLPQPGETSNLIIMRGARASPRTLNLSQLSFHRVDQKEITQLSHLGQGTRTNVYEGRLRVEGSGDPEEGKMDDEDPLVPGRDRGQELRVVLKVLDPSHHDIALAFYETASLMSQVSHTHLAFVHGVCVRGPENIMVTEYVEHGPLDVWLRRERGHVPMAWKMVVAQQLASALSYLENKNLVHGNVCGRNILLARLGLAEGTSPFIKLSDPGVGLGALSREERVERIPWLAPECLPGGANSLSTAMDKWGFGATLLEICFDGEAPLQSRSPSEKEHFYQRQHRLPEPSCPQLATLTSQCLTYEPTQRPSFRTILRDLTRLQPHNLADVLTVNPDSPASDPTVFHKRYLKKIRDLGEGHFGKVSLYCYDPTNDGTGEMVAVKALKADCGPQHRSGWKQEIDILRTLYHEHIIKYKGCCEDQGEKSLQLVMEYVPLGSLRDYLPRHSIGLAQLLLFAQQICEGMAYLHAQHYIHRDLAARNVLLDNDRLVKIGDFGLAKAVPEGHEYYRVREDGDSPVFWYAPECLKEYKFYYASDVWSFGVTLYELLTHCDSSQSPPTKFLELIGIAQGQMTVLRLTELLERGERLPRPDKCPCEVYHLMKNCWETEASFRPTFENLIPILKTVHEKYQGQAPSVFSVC
Serine/threonine-protein kinase 38 (Homo sapiens), sequence (Q15208 2-465 limits assumed): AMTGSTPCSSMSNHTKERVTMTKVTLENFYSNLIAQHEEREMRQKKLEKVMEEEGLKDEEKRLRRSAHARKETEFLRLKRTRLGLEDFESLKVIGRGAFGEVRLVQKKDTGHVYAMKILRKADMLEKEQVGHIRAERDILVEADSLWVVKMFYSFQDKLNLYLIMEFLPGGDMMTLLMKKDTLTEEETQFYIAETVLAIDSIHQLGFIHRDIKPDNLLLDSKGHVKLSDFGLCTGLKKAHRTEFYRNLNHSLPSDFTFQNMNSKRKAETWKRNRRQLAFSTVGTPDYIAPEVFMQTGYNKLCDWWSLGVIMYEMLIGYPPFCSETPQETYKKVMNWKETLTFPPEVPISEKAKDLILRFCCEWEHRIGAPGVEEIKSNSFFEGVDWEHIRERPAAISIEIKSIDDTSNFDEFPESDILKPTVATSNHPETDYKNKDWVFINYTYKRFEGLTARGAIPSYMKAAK
Rho-associated protein kinase 2, sequence (O75116 whole entry, looked up, canonical isoform): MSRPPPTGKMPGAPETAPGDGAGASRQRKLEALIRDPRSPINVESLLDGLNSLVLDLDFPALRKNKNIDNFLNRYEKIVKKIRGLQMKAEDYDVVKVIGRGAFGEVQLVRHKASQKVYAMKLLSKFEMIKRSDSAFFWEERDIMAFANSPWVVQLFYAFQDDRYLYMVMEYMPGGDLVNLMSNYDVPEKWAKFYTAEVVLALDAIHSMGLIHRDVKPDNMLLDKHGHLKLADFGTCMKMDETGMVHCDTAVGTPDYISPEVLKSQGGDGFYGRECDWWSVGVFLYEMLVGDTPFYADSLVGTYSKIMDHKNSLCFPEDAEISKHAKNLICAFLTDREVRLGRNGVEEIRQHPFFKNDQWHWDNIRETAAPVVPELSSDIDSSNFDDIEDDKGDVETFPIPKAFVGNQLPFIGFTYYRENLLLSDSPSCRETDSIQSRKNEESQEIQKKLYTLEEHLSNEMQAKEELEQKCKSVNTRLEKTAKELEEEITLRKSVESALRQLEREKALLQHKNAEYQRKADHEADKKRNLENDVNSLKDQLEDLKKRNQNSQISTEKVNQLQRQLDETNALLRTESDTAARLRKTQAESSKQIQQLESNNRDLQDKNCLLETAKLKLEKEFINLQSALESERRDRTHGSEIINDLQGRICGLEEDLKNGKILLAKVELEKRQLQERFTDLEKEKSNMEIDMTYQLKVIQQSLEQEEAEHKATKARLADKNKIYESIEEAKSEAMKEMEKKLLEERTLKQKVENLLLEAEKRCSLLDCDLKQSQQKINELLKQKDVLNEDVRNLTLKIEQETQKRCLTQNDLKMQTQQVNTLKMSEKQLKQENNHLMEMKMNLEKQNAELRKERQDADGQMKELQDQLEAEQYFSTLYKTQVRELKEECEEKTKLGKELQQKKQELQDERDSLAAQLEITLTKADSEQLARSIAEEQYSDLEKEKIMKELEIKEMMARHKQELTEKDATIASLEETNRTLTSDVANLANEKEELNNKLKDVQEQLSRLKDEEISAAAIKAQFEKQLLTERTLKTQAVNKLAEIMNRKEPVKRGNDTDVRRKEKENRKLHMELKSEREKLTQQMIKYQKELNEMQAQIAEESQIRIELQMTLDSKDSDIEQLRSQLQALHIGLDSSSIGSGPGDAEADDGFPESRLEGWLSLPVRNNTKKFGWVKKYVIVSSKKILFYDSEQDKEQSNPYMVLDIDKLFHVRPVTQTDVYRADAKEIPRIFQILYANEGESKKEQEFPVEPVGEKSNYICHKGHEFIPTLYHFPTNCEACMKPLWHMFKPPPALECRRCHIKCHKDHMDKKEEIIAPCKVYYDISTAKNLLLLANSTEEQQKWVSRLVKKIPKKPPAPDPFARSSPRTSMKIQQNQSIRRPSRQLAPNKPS
Tyrosine-protein kinase Fgr (Homo sapiens), sequence (P09769 2-529 limits assumed): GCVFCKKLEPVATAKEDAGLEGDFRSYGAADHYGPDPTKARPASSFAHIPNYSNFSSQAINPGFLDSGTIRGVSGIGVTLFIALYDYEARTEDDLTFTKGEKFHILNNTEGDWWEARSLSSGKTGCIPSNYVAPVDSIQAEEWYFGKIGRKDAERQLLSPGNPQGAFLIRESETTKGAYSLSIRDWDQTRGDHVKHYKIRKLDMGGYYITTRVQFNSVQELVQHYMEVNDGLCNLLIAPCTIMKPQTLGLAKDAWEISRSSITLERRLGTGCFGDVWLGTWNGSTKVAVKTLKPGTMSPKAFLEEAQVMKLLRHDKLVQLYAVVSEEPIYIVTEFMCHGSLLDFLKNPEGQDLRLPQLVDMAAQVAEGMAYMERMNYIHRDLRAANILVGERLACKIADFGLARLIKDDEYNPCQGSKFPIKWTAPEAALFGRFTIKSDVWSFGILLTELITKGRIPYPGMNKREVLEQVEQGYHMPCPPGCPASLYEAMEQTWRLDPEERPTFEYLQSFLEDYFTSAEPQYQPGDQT
Phosphatidylinositol 4,5-bisphosphate 3-kinase catalytic subunit alpha isoform (Homo sapiens), P42336 [E545A], sequence (P42336 whole entry E545A, canonical isoform): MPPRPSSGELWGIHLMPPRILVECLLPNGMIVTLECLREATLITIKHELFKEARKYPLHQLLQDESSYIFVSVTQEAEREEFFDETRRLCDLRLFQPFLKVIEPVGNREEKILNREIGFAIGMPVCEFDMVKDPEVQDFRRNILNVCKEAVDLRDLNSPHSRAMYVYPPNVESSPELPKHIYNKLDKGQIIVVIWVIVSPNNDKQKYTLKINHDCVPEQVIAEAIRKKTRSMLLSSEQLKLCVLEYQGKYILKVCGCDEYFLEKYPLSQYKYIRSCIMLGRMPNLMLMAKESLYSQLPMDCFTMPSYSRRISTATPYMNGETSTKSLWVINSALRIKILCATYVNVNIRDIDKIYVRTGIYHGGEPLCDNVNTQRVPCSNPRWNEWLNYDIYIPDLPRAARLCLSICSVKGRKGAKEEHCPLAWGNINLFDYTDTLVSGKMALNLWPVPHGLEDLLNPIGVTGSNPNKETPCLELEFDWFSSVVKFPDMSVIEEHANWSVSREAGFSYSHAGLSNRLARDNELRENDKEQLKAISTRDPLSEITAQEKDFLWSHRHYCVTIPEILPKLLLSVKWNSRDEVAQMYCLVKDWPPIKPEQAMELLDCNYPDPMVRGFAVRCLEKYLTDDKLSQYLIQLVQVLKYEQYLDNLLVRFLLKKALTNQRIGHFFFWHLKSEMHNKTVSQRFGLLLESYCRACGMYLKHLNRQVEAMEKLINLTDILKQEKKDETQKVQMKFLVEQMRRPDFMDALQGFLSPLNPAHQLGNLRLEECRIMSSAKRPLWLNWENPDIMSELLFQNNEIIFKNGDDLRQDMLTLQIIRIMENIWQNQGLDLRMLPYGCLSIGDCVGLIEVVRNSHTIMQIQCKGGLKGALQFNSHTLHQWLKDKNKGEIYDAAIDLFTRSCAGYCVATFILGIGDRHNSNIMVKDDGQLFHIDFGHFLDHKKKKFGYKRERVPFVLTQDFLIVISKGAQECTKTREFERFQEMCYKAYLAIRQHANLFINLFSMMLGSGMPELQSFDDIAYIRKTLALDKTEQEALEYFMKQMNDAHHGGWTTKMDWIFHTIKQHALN
Cyclin-dependent kinase-like 1 (Homo sapiens), sequence (Q00532 whole entry): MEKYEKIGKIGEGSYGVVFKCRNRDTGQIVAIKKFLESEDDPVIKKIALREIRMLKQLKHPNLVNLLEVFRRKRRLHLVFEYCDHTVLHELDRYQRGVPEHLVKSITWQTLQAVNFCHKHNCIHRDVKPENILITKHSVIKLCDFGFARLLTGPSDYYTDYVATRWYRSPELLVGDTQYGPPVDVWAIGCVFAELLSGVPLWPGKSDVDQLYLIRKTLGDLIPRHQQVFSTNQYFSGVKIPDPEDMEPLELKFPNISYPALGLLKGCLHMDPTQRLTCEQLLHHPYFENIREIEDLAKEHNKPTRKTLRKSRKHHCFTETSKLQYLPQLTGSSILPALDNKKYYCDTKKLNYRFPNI
Phosphatidylinositol 4,5-bisphosphate 3-kinase catalytic subunit alpha isoform (Homo sapiens), P42336 [E545K], sequence (P42336 whole entry E545K, canonical isoform): as the sequence (P42336 whole entry E545A, canonical isoform) above, with A545K counted along it

## CN1Cc2nccc(-c3cn(C)nc3-c3ccc(F)cc3)c2C1=O
[1]
  % of inhibition: 0%

## CCc1cc(Nc2nccc(-c3c(-c4ccc(OC)c(C(=O)Nc5c(F)cccc5F)c4)nc4ccccn34)n2)c(OC)cc1N1CCC(N2CCN(S(C)(=O)=O)CC2)CC1
[2]
  % of inhibition: 76%

## CC[C@@H]1[C@H](F)C(=O)N[C@@H]1COc1nccc2cc(C(N)=O)c(OC)cc12 [ZIMLOVISERTIB]
[3]
  % of inhibition: -8.9%
[4]; at 0.01 µM
  % of inhibition: 1.5%
[4]; at 0.04 µM
  % of inhibition: 4%
[4]; at 0.2 µM
  % of inhibition: 2.3%
[4]; at 1 µM
  % of inhibition: 12.6%
[4]; at 5 µM
  % of inhibition: 19.4%
[5]
  % of inhibition: 18.6%

## COCC(=O)NC/C=C/c1ccc2ncnc(Nc3ccc(Oc4ccc(C)nc4)c(C)c3)c2c1 [CP-724714]
[6]
  % of control: 33%

## CCC(=O)N1CCN(c2ccc(-n3c(=O)ccc4cnc5ccc(-c6cnc7ccccc7c6)cc5c43)cc2C(F)(F)F)CC1
[7]
  % of control: 0.6%

## CN(C)C/C=C/C(=O)Nc1ccc(C(=O)N2CCCC(Nc3ncc(Cl)c(-c4c[nH]c5ccccc45)n3)C2)cc1 (stereo unspecified)
[8]
  % of control: 38%
[9]
  % of control: 10%

## O[C@H]1CC[C@H](Nc2ncc3nc(Nc4c(F)cc(F)cc4F)n([C@H]4CCOC4)c3n2)CC1
[10]
  % of control: 86%
[11]
  % of control: 84%

## Cc1cc([C@@H](C)Nc2ccccc2C(=O)O)c2nc(N3CCOCC3)cc(=O)n2c1 [AZD-6482]
[12]
  % of control: 100%
[13]
  % of control: 93%
[14]
  % of control: 85%

## Cc1cc(F)c(C(=O)Nc2cccc(-c3nncn3C(C)C)n2)cc1-n1cnc(C2CC2)c1
[15]
  % of control: 100%
[16]
  % of control: 93%

## CNC(=O)Nc1ccc(-c2nc(N3CC4CCC(C3)O4)c3cnn(C4CCC5(CC4)OCCO5)c3n2)cc1
[17]
  % of control: 94%
